Measurements: PubChem BioAssay (NCI)
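Results reflect a 48-hour exposure of cells in 96-well plates to compound at five concentrations. TGI: concentration producing complete growth inhibition.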

How the values were obtained:
Experiment in all cases: growth of human tumour cells (NCI), 48 h
HOP-92 NSCLC = tested on: HOP-92 NSCLC
UACC-257 melanoma = tested on: UACC-257 melanoma
SW-620 colon = tested on: SW-620 colon
PC-3 prostate = tested on: PC-3 prostate
HCT-15 colon = tested on: HCT-15 colon
MDA-MB-435 = tested on: MDA-MB-435
KM12 colon = tested on: KM12 colon
HL-60(TB) leukemia = tested on: HL-60(TB) leukemia
HCT-116 colon = tested on: HCT-116 colon
UACC-62 melanoma = tested on: UACC-62 melanoma
TK-10 renal = tested on: TK-10 renal
UO-31 renal = tested on: UO-31 renal
NCI-H226 lung = tested on: NCI-H226 lung
RXF 393 renal = tested on: RXF 393 renal
HT29 colon = tested on: HT29 colon
HCC-2998 colon = tested on: HCC-2998 colon
U251 CNS = tested on: U251 CNS
NCI-H460 lung = tested on: NCI-H460 lung
SK-MEL-28 melanoma = tested on: SK-MEL-28 melanoma
K-562 leukemia = tested on: K-562 leukemia
LOX IMVI melanoma = tested on: LOX IMVI melanoma
EKVX NSCLC = tested on: EKVX NSCLC
OVCAR-4 ovarian = tested on: OVCAR-4 ovarian
IGROV1 ovarian = tested on: IGROV1 ovarian
A498 renal = tested on: A498 renal
COLO 205 colon = tested on: COLO 205 colon
NCI/ADR-RES ovarian = tested on: NCI/ADR-RES ovarian
SNB-75 CNS = tested on: SNB-75 CNS
NCI-H23 lung = tested on: NCI-H23 lung
SF-295 CNS = tested on: SF-295 CNS
HS 578T breast = tested on: HS 578T breast
SR leukemia = tested on: SR leukemia
T-47D breast = tested on: T-47D breast
SK-MEL-2 melanoma = tested on: SK-MEL-2 melanoma
786-0 renal = tested on: 786-0 renal
CAKI-1 renal = tested on: CAKI-1 renal
MDA-MB-231 breast = tested on: MDA-MB-231 breast
SK-MEL-5 melanoma = tested on: SK-MEL-5 melanoma
ACHN renal = tested on: ACHN renal
HOP-62 NSCLC = tested on: HOP-62 NSCLC
SK-OV-3 ovarian = tested on: SK-OV-3 ovarian
BT-549 breast = tested on: BT-549 breast
SNB-19 CNS = tested on: SNB-19 CNS
MCF7 breast = tested on: MCF7 breast
M14 melanoma = tested on: M14 melanoma
SF-539 CNS = tested on: SF-539 CNS
RPMI-8226 leukemia = tested on: RPMI-8226 leukemia
OVCAR-8 ovarian = tested on: OVCAR-8 ovarian
SF-268 CNS = tested on: SF-268 CNS
DU-145 prostate = tested on: DU-145 prostate
CCRF-CEM leukemia = tested on: CCRF-CEM leukemia

With `CCOC(=O)C(C)c1nc2cc3cccnc3c(Cl)c2[nH]c1=O` (stereo unspecified) the TGI (HOP-92 NSCLC) was > 100 µM, the TGI (UACC-257 melanoma) was > 100 µM and the TGI (SW-620 colon) was > 100 µM. The TGI (PC-3 prostate) was > 100 µM, the TGI (HCT-15 colon) was > 100 µM and the TGI (MDA-MB-435) was > 100 µM. For the same compound, the TGI (KM12 colon) was > 100 µM, the TGI (HL-60(TB) leukemia) was > 100 µM and the TGI (HCT-116 colon) was > 100 µM. The TGI (UACC-62 melanoma) was > 100 µM, the TGI (TK-10 renal) was > 100 µM and the TGI (UO-31 renal) was > 100 µM. For the same compound, the TGI (NCI-H226 lung) was > 100 µM, the TGI (RXF 393 renal) was > 100 µM and the TGI (HT29 colon) was > 100 µM. For the same compound, the TGI (HCC-2998 colon) was > 100 µM, the TGI (U251 CNS) was > 100 µM and the TGI (NCI-H460 lung) was > 100 µM. The TGI (SK-MEL-28 melanoma) was > 100 µM, the TGI (K-562 leukemia) was > 100 µM and the TGI (LOX IMVI melanoma) was > 100 µM. For the same compound, the TGI (EKVX NSCLC) was > 100 µM, the TGI (OVCAR-4 ovarian) was > 100 µM and the TGI (IGROV1 ovarian) was > 100 µM. The TGI (A498 renal) was > 100 µM, the TGI (COLO 205 colon) was > 100 µM and the TGI (NCI/ADR-RES ovarian) was > 100 µM. The TGI (SNB-75 CNS) was > 100 µM, the TGI (NCI-H23 lung) was > 100 µM and the TGI (SF-295 CNS) was > 100 µM. For the same compound, the TGI (HS 578T breast) was > 100 µM, the TGI (SR leukemia) was > 100 µM and the TGI (T-47D breast) was > 100 µM. The TGI (SK-MEL-2 melanoma) was > 100 µM, the TGI (786-0 renal) was > 100 µM and the TGI (CAKI-1 renal) was > 100 µM. For the same compound, the TGI (MDA-MB-231 breast) was > 100 µM, the TGI (SK-MEL-5 melanoma) was > 100 µM and the TGI (ACHN renal) was > 100 µM. The TGI (HOP-62 NSCLC) was > 100 µM, the TGI (SK-OV-3 ovarian) was > 100 µM and the TGI (BT-549 breast) was > 100 µM. The TGI (SNB-19 CNS) was > 100 µM, the TGI (MCF7 breast) was > 100 µM and the TGI (M14 melanoma) was > 100 µM. The TGI (SF-539 CNS) was > 100 µM, the TGI (RPMI-8226 leukemia) was > 100 µM and the TGI (OVCAR-8 ovarian) was > 100 µM. For the same compound, the TGI (SF-268 CNS) was > 100 µM, the TGI (DU-145 prostate) was 50 µM and the TGI (CCRF-CEM leukemia) was > 100 µM.
